According to patent publication US7662820B2, “Dipterinyl calcium pentahydrate (DCP) and therapeutic methods based thereon” (SanRX Pharmaceuticals, Inc., priority 2006, dated 2010):

Experiments:
[1] = tested on: tumor; settings: in vivo; cited from earlier work
[2] = tested on: MDA-MB-231 human tumor xenographs; experiment: Antitumor efficacy in nude mice with MDA-MB-231 human tumor xenographs; assay type: in vivo, athymic nude (nu/nu) mice; settings: for inhibition of MDA-MB-231 xenograph growth (Relative Tumor Volume): nude mice, versus untreated control; for inhibition of MDA-MB-231 xenograph growth (Relative Tumor Volume) / anti tumor efficacy compared with original CaPterin, (1:4 mol:mol) calcium pterin: oral gavage once daily, FIG. 1
Source text: FIGS. 1A and 1B (with SEMs): Twenty-nine athymic nude (nu/nu) female mice, ages 3-4 weeks, were inoculated with 10×10^6 MDA-MB-231 cancer cells subcutaneously into the right flank of each mouse. […] Four mice were assigned as controls. Four mice with outlying tumor sizes or non-tumor takes were subsequently excluded. […] The control group was untreated.
Cell Line Propagation and Inoculation: The MDA-MB-231 human breast tumor cell lines were supplied by SRI International (Menlo Park, Calif.) and propagated using standard in vitro cell expansion methods. Briefly, cells were grown in L-15 media from Gibco (Cat. No. 11415-064) supplemented with 2 mM L-Glutamine and 10% Fetal Bovine Serum (FBS). The cells were cultured in an incubator with 5% C02, 37.50C, and 80% humidity. Cells were harvested with 0.25% (w/v) Trypsin-0.03% (w/v) EDTA solution. Cells were prepared for injection by standard methods to appropriate concentrations. Animals were temporarily restrained but not anesthetized for the inoculation of the tumor cells. Animals were subcutaneously injected with the tumor cells in a 100-200 μl volume.
Control groups were untreated. Daily dosing was for 7 days per week. Animals were restrained but not anesthetized for oral dosing.
Tumor Growth Rate Measurements: Each animal was individually tracked for tumor growth by external caliper measurements of protruding tumor. Primary tumor sizes were measured using calipers and an approximate tumor volume calculated using the formula 1/2 (a×b2), where b was the smaller of two perpendicular diameters.
For each group, the mean and standard error of the mean (SEM) of the ratio V/Vo, Relative Tumor Volume (RTV), were plotted as a function of treatment time after inoculation. V0 was the tumor volume at Day 0, when treatment began. Time course statistical analyses based upon repeated measures ANOVA models were used (StatView SE+Graphics, v 1.03).

[3] = nude mice treated with DCP, FIG. 3
Procedure: Twenty-nine athymic nude were each injected subcutaneously with 10×10^6 MDA-MB-231 cancer cells into the right flank. When tumors reached 3-5 mm in size, the mice were divided into five treatment groups of five each and a control group of four mice. Four of these with outlying tumor sizes or non-tumor takes were excluded shortly after treatment began: one each from the (1:4 mol:mol) calcium pterin group, the (1:2 mol:mol) calcium pterin group, the DCP (69 mg/kg/day) group, and one from the control group. Experimental groups were treated by oral gavage once daily with the indicated test suspensions or solutions. Control groups were untreated. Daily dosing was for 7 days per week. Animals were restrained but not anesthetized for oral dosing. Tumors were measured twice weekly with calipers and body weights taken twice weekly on the day of tumor measurements. Blood was collected from all animals via cardiac puncture at termination (after 70 to 98 days of treatment) and processed to EDTA plasma for analysis.

[4] = tested on: sarcoma; settings: mice; cited from earlier work

SMILES: Nc1nc2[nH]c(=O)cnc2c(=O)[nH]1 [Isoxanthopterin]
- tumor growth [1]: inhibit tumor growth

SMILES: O.O.[Ca+2].[Cl-].[Cl-] [calcium chloride dihydrate, reference compound]
- inhibition of MDA-MB-231 xenograph growth (Relative Tumor Volume) [2]: significantly inhibit

SMILES: Nc1nc([O-])c2nccnc2n1.Nc1nc([O-])c2nccnc2n1.[Ca+2] [DCP, dipterinyl calcium pentahydrate]
- anti tumor efficacy compared with original CaPterin, (1:4 mol:mol) calcium pterin ([2]; DCP at 23 mg/kg/day): significantly greater anti tumor efficacy
- anti tumor efficacy compared with original CaPterin, (1:4 mol:mol) calcium pterin ([2]; DCP at 69 mg/kg/day): comparable efficacy
- inhibition of MDA-MB-231 xenograph growth (Relative Tumor Volume) [2]: significantly inhibit
- inhibition of MDA-MB-231 xenograph tumors compared with (1:4 mol:mol) calcium pterin [CaPterin] ([2]; oral, dose not stated (conclusion)): significantly greater
- weight loss [3]: no significant weight loss

SMILES: Nc1nc(=O)c2[nH]c(=O)cnc2[nH]1 [Xanthopterin]
- sarcoma growth [4]: inhibit sarcoma growth
